# US20220040072A1, “Reduction of Pathogenic Bacteria Using Arginine” (Colgate-Palmolive Company, priority 2018, published 2022)
# Tests used:
# [1] = tested on: A. viscosus; assay: Single species growth in media supplemented with arginine (optical density 630 nm); assay type: cell-based, Actinomyces viscosus; details: 10-25 micromol/ml arginine; vs reference control set to 1; OD 630 nm at 24 and 48 hours
# Experimental: (§1) To assess the impact of the amino acid arginine on beneficial oral bacteria and on pathogenic oral bacteria, representative bacterial species were cultured in media supplemented with 5, 10, 20, and 25 micromol/ml of arginine using a 96-well polystyrene microtiter plate. The bacterial cultures were incubated under anaerobic conditions or an environment containing 5% carbon dioxide, monitoring growth at 24 and 48 hours through optical density at a wavelength of 630 nm.
# (§2) *Single species growth and biofilm formation stimulated by arginine in comparison to the reference control which was set to a value of 1 (p<0.05). Cut-off values were set to a factor of 1.2 for growth (upper 5% of all data), and 1.45 for biofilm formation (upper 20% of all data). Aa: Aggregatibacter actinomycetemcomitans, Fn: Fusobacterium nucleatum, Ssob: Streptococcus sobrinus, Avisc: Actinomyces viscosus, Ssal: Streptococcus salivarius, Smitis: Streptococcus mitis, Ssang: Streptococcus sanguinis, Sgord: Streptococcus gordonii, Soralis: Streptococcus oralis.
# [2] = tested on: S. sanguinis; assay: as above; assay type: cell-based, Streptococcus sanguinis; details: 10-25 micromol/ml arginine; vs reference control set to 1; OD 630 nm at 24 and 48 hours
# Experimental: as §1, §2
# [3] = tested on: S. gordonii; assay: as above; assay type: cell-based, Streptococcus gordonii; details: 10-25 micromol/ml arginine; vs reference control set to 1; OD 630 nm at 24 and 48 hours
# Experimental: as §1, §2
# [4] = tested on: pathogenic bacteria; assay: as above; assay type: cell-based; details: 5, 10, 20, 25 micromol/ml arginine; OD 630 nm at 24 and 48 hours
# Experimental: as §1, §2
# [5] = tested on: A. actinomycetemcomitans biofilms; assay: Total biofilm growth in the presence of arginine (crystal violet staining); assay type: cell-based, Aggregatibacter actinomycetemcomitans; details: vs no substrate control
# Source text: as §2
# (§3) Total biofilm growth in the presence of arginine was assessed through crystal violet staining. An increase of 1.2-fold or greater over the no substrate control was considered significant as calculated using a Student's t-test (p<0.05).
# [6] = tested on: pathogenic and beneficial microbes; assay: as above; assay type: cell-based; details: vs no substrate control, species other than A. actinomycetemcomitans
# Source text: as §2, §3
# [7] = tested on: Fusobacterium nucieatum; assay: Dual species competitive biofilm assay (qPCR); assay type: cell-based, Fusobacterium nucleatum; details: 25 μmol/ml arginine, negative value = reduction of pathogen
# Experimental: (§4) The impact of arginine in a dual-species biofilm was assessed by co-culturing one beneficial bacterial species with on pathogenic microbe in media containing 25 micromol/ml of arginine. The total beneficial-to-pathogen load in the results biofilms were determined via qPCR using DNA probes.
# (§5) Using a competitive biofilm assay, the role of arginine as a selective nutrient was assessed using a dual species biofilm model (Table 2).
# [8] = tested on: Aggregatibacter actinomycetemcomitans; assay: Dual species competitive biofilm assay (qPCR); assay type: cell-based; details: 25 μmol/ml arginine, negative value = reduction of pathogen
# Experimental: as §4, §5
# [9] = tested on: Porphyromonas gingivalis; assay: Dual species competitive biofilm assay (qPCR); assay type: cell-based; details: 25 μmol/ml arginine, negative value = reduction of pathogen
# Experimental: as §4, §5
# [10] = tested on: Prevotella intermedia; assay: Dual species competitive biofilm assay (qPCR); assay type: cell-based; details: 25 μmol/ml arginine, negative value = reduction of pathogen
# Experimental: as §4, §5
# [11] = tested on: Streptococcus mutans; assay: Dual species competitive biofilm assay (qPCR); assay type: cell-based; details: 25 μmol/ml arginine, negative value = reduction of pathogen
# Experimental: as §4, §5
# [12] = tested on: Streptococcus sobrinus; assay: Dual species competitive biofilm assay (qPCR); assay type: cell-based; details: 25 μmol/ml arginine, negative value = reduction of pathogen
# Experimental: as §4, §5
# [13] = tested on: beneficial bacteria; assay: Dual species competitive biofilm assay (qPCR); assay type: cell-based; details: 25 micromol/ml arginine; co-cultured with one pathogenic microbe
# Experimental: as §4, §5
# [14] = co-cultured with Actinomyces viscosus
# [15] = co-cultured with Streptoccoccus salivarius
# [16] = co-cultured with Streptococcus gordonii
# [17] = co-cultured with Streptococcus mitis
# [18] = co-cultured with Streptococcus oralis
# [19] = co-cultured with Streptococcus sanguinis
compound,measurement,setting,value
N=C(N)NCCC[C@H](N)C(=O)O [arginine],fold increase of growth,[1],1.2-1.3 fold
same,fold increase of growth,[2],1.2-1.3 fold
same,fold increase of growth,[3],1.2-1.3 fold
same,increase of pathogenic bacteria growth,[4],no significant increase
same,biofilm formation,[5],increase
same,biofilm formation,[6],no significant increase
same,Proportional reduction of pathogenic species in a dual species biofilm post-Arginine treatment,[7]; [14],13.35%
same,Proportional reduction of pathogenic species in a dual species biofilm post-Arginine treatment,[7]; [15],−28.32%
same,Proportional reduction of pathogenic species in a dual species biofilm post-Arginine treatment,[7]; [16],474.12%
same,Proportional reduction of pathogenic species in a dual species biofilm post-Arginine treatment,[7]; [17],209.31%
same,Proportional reduction of pathogenic species in a dual species biofilm post-Arginine treatment,[7]; [18],101.73%
same,Proportional reduction of pathogenic species in a dual species biofilm post-Arginine treatment,[7]; [19],112.11%
same,Proportional reduction of pathogenic species in a dual species biofilm post-Arginine treatment,[8]; [14],−25.66%
same,Proportional reduction of pathogenic species in a dual species biofilm post-Arginine treatment,[8]; [15],−35.38%
same,Proportional reduction of pathogenic species in a dual species biofilm post-Arginine treatment,[8]; [16],100.61%
same,Proportional reduction of pathogenic species in a dual species biofilm post-Arginine treatment,[8]; [17],73.94%
same,Proportional reduction of pathogenic species in a dual species biofilm post-Arginine treatment,[8]; [18],268.65%
same,Proportional reduction of pathogenic species in a dual species biofilm post-Arginine treatment,[8]; [19],233.40%
same,Proportional reduction of pathogenic species in a dual species biofilm post-Arginine treatment,[9]; [14],−97.78%
same,Proportional reduction of pathogenic species in a dual species biofilm post-Arginine treatment,[9]; [15],90.75%
same,Proportional reduction of pathogenic species in a dual species biofilm post-Arginine treatment,[9]; [16],−52.94%
same,Proportional reduction of pathogenic species in a dual species biofilm post-Arginine treatment,[9]; [17],−96.62%
same,Proportional reduction of pathogenic species in a dual species biofilm post-Arginine treatment,[9]; [18],−79.23%
same,Proportional reduction of pathogenic species in a dual species biofilm post-Arginine treatment,[9]; [19],−85.49%
same,Proportional reduction of pathogenic species in a dual species biofilm post-Arginine treatment,[10]; [14],−99.99%
same,Proportional reduction of pathogenic species in a dual species biofilm post-Arginine treatment,[10]; [15],81.56%
same,Proportional reduction of pathogenic species in a dual species biofilm post-Arginine treatment,[10]; [16],−98.29%
same,Proportional reduction of pathogenic species in a dual species biofilm post-Arginine treatment,[10]; [17],−52.64%
same,Proportional reduction of pathogenic species in a dual species biofilm post-Arginine treatment,[10]; [18],−73.78%
same,Proportional reduction of pathogenic species in a dual species biofilm post-Arginine treatment,[10]; [19],−99.35%
same,Proportional reduction of pathogenic species in a dual species biofilm post-Arginine treatment,[11]; [14],−23.93%
same,Proportional reduction of pathogenic species in a dual species biofilm post-Arginine treatment,[11]; [15],−15.19%
same,Proportional reduction of pathogenic species in a dual species biofilm post-Arginine treatment,[11]; [16],−87.64%
same,Proportional reduction of pathogenic species in a dual species biofilm post-Arginine treatment,[11]; [17],−0.72%
same,Proportional reduction of pathogenic species in a dual species biofilm post-Arginine treatment,[11]; [18],−3.47%
same,Proportional reduction of pathogenic species in a dual species biofilm post-Arginine treatment,[11]; [19],−19.30%
same,Proportional reduction of pathogenic species in a dual species biofilm post-Arginine treatment,[12]; [14],−7.87%
same,Proportional reduction of pathogenic species in a dual species biofilm post-Arginine treatment,[12]; [15],−1.33%
same,Proportional reduction of pathogenic species in a dual species biofilm post-Arginine treatment,[12]; [16],−50.33%
same,Proportional reduction of pathogenic species in a dual species biofilm post-Arginine treatment,[12]; [17],49.29%
same,Proportional reduction of pathogenic species in a dual species biofilm post-Arginine treatment,[12]; [18],−15.77%
same,Proportional reduction of pathogenic species in a dual species biofilm post-Arginine treatment,[12]; [19],−40.73%
same,growth of beneficial bacteria in arginine-cultured dual species biofilms,[13],increase
